Results from patent US20250313563A1, “GLYCOGEN SYNTHASE KINASE 3 INHIBITORS AND USES THEREOF” (The Broad Institute, Inc., priority 2022, published 2025).
Like-named read-outs stand apart in the source and are kept apart here.

Experiments:
[1] = biological target: GSK3α (GST-full length GSK3α) (Homo sapiens (Human), UniProt P49840); assay: GSK3α TR-FRET kinase assay; assay type: biochemical
Outline: (§1)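 1 nM GST-GSK3α/β + cpd, 30 min preinc; add 200 nM biotin-pS645 GS(631-650) peptide + ATP (α 4 μM / β 2 μM, or 1 mM); 100 min RT, 50 mM Tris pH 7.5, 20 mM MgCl2, 1% DMSO; EDTA stop; SA-d2/Tb-pSer641 Ab 60 min; 665/615 ratio → IC50.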

[2] = Microsomal stability (MIC), mouse; assay type: in vitro ADME, mouse (CD-1); details: mouse liver microsomes; for half-life at 1 μM: CD-1, read-out: Microsome stability (mouse), in vitro T1/2
Procedure: (§2) Stability of compound in liver microsomes was tested in duplicate by incubating compound at 1 μM for 60 minutes at 37° C. Compound level at 60 minutes was compared to level at 0 minutes, and percent remaining was calculated. Assay Parameters
(§3) Available species: human and mouse (CD-1). Compound requirements: 5 μL of a 10 mM DMSO solution. Incubation time: 60 minutes at 37° C. Test Concentration: 1 μM.
(§4) Microsomes with NADPH without compound-matrix interference. Microsomes plus compound without NADPH—non-enzymatic instability.

[3] = biological target: GSK3b (GST-full length GSK3b) (Homo sapiens (Human), UniProt P49841); assay: GSK3b TR-FRET kinase assay; assay type: biochemical
Chain of GSK3b (GST-full length GSK3b) (P49841 whole entry): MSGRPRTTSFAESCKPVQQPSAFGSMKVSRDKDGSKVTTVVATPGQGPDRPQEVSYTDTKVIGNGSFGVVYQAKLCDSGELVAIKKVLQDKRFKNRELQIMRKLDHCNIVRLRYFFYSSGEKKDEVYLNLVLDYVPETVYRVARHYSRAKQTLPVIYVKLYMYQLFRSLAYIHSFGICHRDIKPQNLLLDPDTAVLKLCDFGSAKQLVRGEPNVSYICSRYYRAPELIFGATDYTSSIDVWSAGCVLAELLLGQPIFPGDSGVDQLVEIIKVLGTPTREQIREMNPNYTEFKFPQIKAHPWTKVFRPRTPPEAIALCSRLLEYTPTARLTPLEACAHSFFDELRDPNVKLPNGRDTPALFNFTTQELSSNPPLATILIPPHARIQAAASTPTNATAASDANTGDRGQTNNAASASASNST
Outline: as §1

[4] = Microsomal stability (MIC), human; assay type: in vitro ADME; details: human liver microsomes
Procedure: as §2, §3, §4

[5] = system: MDR1-MDCK cell monolayers; assay: MDR1/MDCK assay (blood-brain barrier penetration potential); assay type: in vitro ADME; details: 5 μM, pH 7.4, 120 minutes; for MDCK permeability (MDR1-MDCK); Mean; Papp (A − B): A to B; for MDCK permeability (MDR1-MDCK); Mean; Papp (B − A): B to A
Procedure: The MDR1/MDCK assay is run at Absorption Systems. This assay is used to determine the blood-brain barrier (BBB) penetration potential of a test compound using MDR1-MDCK cell monolayers. Catalog number EA203.
• Test compound at 5 μM in HBSSg with maximum DMSO concentration not greater than 1%.
• Confluent monolayers of MDR1-MDCK cells, 7 to 11 days old.
• Receiver well with 1% BSA in modified Hanks buffer (HBSSg) • Apical and basolateral side at pH 7.4 • Dose two monolayers in each direction (N=2) • Dose apical side for (A to B) assessment • Dose basolateral side for (B to A) assessment • Sample both apical and basolateral sides at 120 minutes • Determine the concentrations of test compound using a generic LC-MS/MS method with a minimum 4 point calibration curve.
• The quality of the cell monolayer batch is verified using control compounds before monolayers are released for use • The quality of each monolayer used in the assay is verified by a TEER measurement and by calculating the Papp for a control compound.

[6] = GSK3-A (TR-FRET 1 mM ATP), GMean, IC50, 1 mM ATP, geometric mean
[7] = GSK3-B (TR-FRET 1 mM ATP), GMean, IC50, 1 mM ATP, geometric mean
[8] = read-out: GSK3-A (TR-FRET 1 mM ATP), GMean, IC50, 1 mM ATP, geometric mean
[9] = read-out: GSK3-B (TR-FRET 1 mM ATP), GMean, IC50, 1 mM ATP, geometric mean
[10] = 1 nM GSK3α, 4 μM ATP, 30 minute preincubation, Table 16, read-out: GSK3-A TR-FRET BIOCHEMICAL (TR-FRET)
[11] = 1 nM GSK3b, 2 μM ATP, 30 minute preincubation, Table 16, read-out: GSK3-B TR-FRET BIOCHEMICAL (TR-FRET)

Chain of GSK3α (GST-full length GSK3α) (P49840 whole entry): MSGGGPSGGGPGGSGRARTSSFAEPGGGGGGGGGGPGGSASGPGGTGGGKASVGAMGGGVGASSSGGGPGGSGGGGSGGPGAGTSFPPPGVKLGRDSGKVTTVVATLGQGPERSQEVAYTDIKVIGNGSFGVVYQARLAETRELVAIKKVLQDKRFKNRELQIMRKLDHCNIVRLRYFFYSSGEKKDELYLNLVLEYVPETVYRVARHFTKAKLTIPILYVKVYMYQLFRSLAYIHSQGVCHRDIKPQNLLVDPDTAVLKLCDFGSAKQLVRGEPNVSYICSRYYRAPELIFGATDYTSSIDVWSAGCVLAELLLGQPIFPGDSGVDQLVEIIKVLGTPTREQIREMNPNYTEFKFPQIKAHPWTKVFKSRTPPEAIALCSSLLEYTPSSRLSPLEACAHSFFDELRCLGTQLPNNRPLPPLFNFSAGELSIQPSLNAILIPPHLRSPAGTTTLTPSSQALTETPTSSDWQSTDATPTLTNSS

IC50 [1, 8] [nM] | Microsome stability (mouse); in vitro T1/2 [2] [min] | IC50 [3, 9] [nM] | MDCK permeability (MDR1-MDCK); Mean; Papp Ratio (B − A/A − B) (efflux ratio) [5] | MDCK permeability (MDR1-MDCK); Mean; Papp (A − B) [5] | MDCK permeability (MDR1-MDCK); Mean; Papp (B − A) [5] | IC50 [1, 10] [nM] | IC50 [3, 11] [nM] | SMILES | other results
– | – | – | – | – | – | – | – | Cc1[nH]nc2c1C1(CN(S(=O)(=O)CC3CC3)C1)C1=C(CC(C)(C)CC1=O)N2 [Compound 107828] | IC50 [1, 6]: ≤ 100 nM; half-life at 1 μM [2]: 6.49 min; IC50 [3, 7]: 100 to 1000 nM
1000 to 5000 | 2.084 | 100 to 1000 | – | – | – | – | – | CC(C)(C)Cc1[nH]nc2c1C1(CN(S(=O)(=O)CC3CC3)C1)C1=C(CC3(CCC3)CC1=O)N2 [Compound 107829] | Microsome stability (human); in vitro T1/2 [4]: 8.877 min
100 to 1000 | 0.69 | 100 to 1000 | – | – | – | – | – | CC(C)(C)Cc1[nH]nc2c1C(C)(c1cccc(S(=O)(=O)CC3CC3)c1)C1=C(CC(C)(C)NC1=O)N2 (centres unmarked) [Compound 108005] | –
– | – | – | – | – | – | – | – | COc1cncc(F)c1-c1cccc([C@]2(C)C3=C(CC(C)(C)CC3=O)Nc3n[nH]c(CC(C)(C)C)c32)c1 [Compound 108954] | IC50 [1, 6]: 1000 to 5000 nM; half-life at 1 μM [2]: 8.59 min; IC50 [3, 7]: 100 to 1000 nM
– | – | – | – | – | – | – | – | CC1(C)CC(=O)C2=C(C1)Nc1n[nH]c(C3CC3)c1C21CN(S(=O)(=O)CC2CC2)C1 [Compound 109152] | IC50 [1, 6]: 100 to 1000 nM; half-life at 1 μM [2]: 0.97 min; IC50 [3, 7]: 100 to 1000 nM
100 to 1000 | 6.4 | ≤ 100 | – | – | – | – | – | CC(C)(C)Cc1[nH]nc2c1C(C)(c1cccc(S(C)(=O)=O)c1)C1=C(CC(C)(C)CC1=O)N2 (centres unmarked) [Compound 114687] | Microsome stability (human); in vitro T1/2 [4]: 12.3 min
1000 to 5000 | 0.5 | 100 to 1000 | 42.3 | 1.65 10^−6 cm/s | 70 10^−6 cm/s | – | – | CN1CC2(C3=C(CC(C)(C)CC3=O)Nc3n[nH]c(C4CC(F)(F)C4)c32)c2ccccc21 (centres unmarked) [Compound 119048] | Microsome stability (human); in vitro T1/2 [4]: 1.4 min
1000 to 5000 | 36 | 100 to 1000 | 301 | 0.2 10^−6 cm/s | 61.2 10^−6 cm/s | – | – | CC(C)(C)Cc1[nH]nc2c1C(C)(c1cc(S(C)(=O)=O)ccc1F)C1=C(CC(C)(C)CC1=O)N2 (centres unmarked) [Compound 125976] | Microsome stability (human); in vitro T1/2 [4]: 26.2 min
1000 to 5000 | 0.6 | 100 to 1000 | 7.49 | 10.8 10^−6 cm/s | 81.2 10^−6 cm/s | – | – | CN1CC2(C3=C(CC(C)(C)CC3=O)Nc3n[nH]c(CC(C)(C)C)c32)c2ccccc21 (centres unmarked) [Compound 125978] | Microsome stability (human); in vitro T1/2 [4]: 0.6 min
1000 to 5000 | – | 100 to 1000 | 120 | 0.47 10^−6 cm/s | 56.2 10^−6 cm/s | – | – | CN(C)S(=O)(=O)c1cccc(C2(C)C3=C(CC(C)(C)CC3=O)Nc3n[nH]c(CC(C)(C)C)c32)c1 (centres unmarked) [Compound 126012] | –
100 to 1000 | – | 100 to 1000 | 187 | 0.17 10^−6 cm/s | 32.1 10^−6 cm/s | – | – | Cn1cncc1-c1cccc(C2(C)C3=C(CC(C)(C)CC3=O)Nc3n[nH]c(CC(C)(C)C)c32)c1 (centres unmarked) [Compound 126014] | –
1000 to 5000 | – | 100 to 1000 | 199 | 0.08 10^−6 cm/s | 15.7 10^−6 cm/s | – | – | C[S+]([O-])c1cccc(C2(C)C3=C(CC(C)(C)CC3=O)Nc3n[nH]c(CC(C)(C)C)c32)c1 (centres unmarked) [Compound 126190] | –
1000 to 5000 | – | 100 to 1000 | 92.5 | 0.59 10^−6 cm/s | 54.5 10^−6 cm/s | – | – | Cn1cc(-c2cccc(C3(C)C4=C(CC(C)(C)CC4=O)Nc4n[nH]c(CC(C)(C)C)c43)c2)cn1 (centres unmarked) [Compound 126393] | –
1000 to 5000 | – | 100 to 1000 | 8.9 | 6.48 10^−6 cm/s | 57.6 10^−6 cm/s | – | – | CC(C)(C)Cc1[nH]nc2c1C(C)(c1cccc(S(=O)(=O)C(F)(F)F)c1)C1=C(CC(C)(C)CC1=O)N2 (centres unmarked) [Compound 126395] | –
1000 to 5000 | >145 | ≤ 100 | – | – | – | – | – | Cc1ccc(S(C)(=O)=O)cc1C1(C)C2=C(CC(C)(C)CC2=O)Nc2n[nH]c(CC(C)(C)C)c21 (centres unmarked) [Compound 126397] | Microsome stability (human); in vitro T1/2 [4]: 104.9 min
1000 to 5000 | – | 100 to 1000 | 119 | 0.41 10^−6 cm/s | 48.9 10^−6 cm/s | – | – | CC(C)(C)Cc1[nH]nc2c1C(C)(c1cccc(N3CCOCC3)c1)C1=C(CC(C)(C)CC1=O)N2 (centres unmarked) [Compound 126400] | –
1000 to 5000 | 74.5 | 100 to 1000 | – | – | – | – | – | CC1(C)CC(=O)C2=C(C1)Nc1n[nH]c(C3CC(F)(F)C3)c1C21COc2ccccc21 (centres unmarked) [Compound 127430] | Microsome stability (human); in vitro T1/2 [4]: >145 min
≤ 100 | – | 1000 to 5000 | – | – | – | ≤ 100 | ≤ 100 | CC[C@@]1(c2cccc(-c3ccnn3C)c2)C2=C(Nc3n[nH]cc31)[C@H](F)C(C)(C)CC2=O [Compound 957507] | –
– | – | – | – | – | – | > 5000 | > 5000 | CC[C@]1(c2cccc(-c3ccnn3C)c2)C2=C(Nc3n[nH]cc31)[C@H](F)C(C)(C)CC2=O [Compound 957508] | –
– | – | – | – | – | – | 100 to 1000 | > 5000 | CCC1(c2cccc(-c3ccnn3C)c2)C2=C(Nc3n[nH]cc31)C(F)C(C)(C)CC2=O (centres unmarked) [Compound 957509] | –
– | – | – | – | – | – | 1000 to 5000 | > 5000 | CCC1(c2cccc(-c3cnn(C)c3)c2)C2=C(Nc3n[nH]cc31)C(F)C(C)(C)CC2=O (centres unmarked) [Compound 957510] | –
– | – | – | – | – | – | – | – | CC[C@]1(c2cccc(C(F)(F)F)c2)C2=C(CC(C)(C)NC2=O)Nc2n[nH]c(F)c21 [Compound 957518] | IC50 ([1]; 1 nM GSK3α, 4 μM ATP, 30 minute preincubation, Table 16, read-out: GSK3-A TR-FRET BIOCHEMICAL (TR-FRET), IC50): ≤ 100 nM; IC50 ([3]; 1 nM GSK3b, 2 μM ATP, 30 minute preincubation, Table 16, read-out: GSK3-B TR-FRET BIOCHEMICAL (TR-FRET), IC50): 100 to 1000 nM
1000 to 5000 | – | > 5000 | – | – | – | ≤ 100 | 100 to 1000 | CCC1(c2cccc(-c3ccncc3)c2)C2=C(Nc3n[nH]cc31)C(F)C(C)(C)CC2=O (centres unmarked) [Compound 959341] | –
– | – | – | – | – | – | 1000 to 5000 | > 5000 | CCC1(c2cccc(-c3ccncc3)c2)C2=C(Nc3n[nH]cc31)C(F)C(C)(C)CC2=O (centres unmarked) [Compound 959342] | –
– | – | – | – | – | – | > 5000 | > 5000 | CC[C@]1(c2cccc(-c3ccncc3)c2)C2=C(Nc3n[nH]cc31)[C@@H](F)C(C)(C)CC2=O [Compound 959344] | –
– | – | – | – | – | – | ≤ 100 | ≤ 100 | CCC1(c2cccc(-c3cncn3C(C)C)c2)C2=C(Nc3n[nH]cc31)C(F)C(C)(C)CC2=O (centres unmarked) [Compound 963155] | –
